For this assay, the system named is human promonocytic lymphoma cells (U937). Kind of assay: Microculture indicator system (MIS), MTT growth inhibition assay with bivariate serial dilutions. It is filed as cell-based. Particulars: for combined results ratio, K252a only / Combined results ratio / combined results ratio, Cisplatin only: U937; for Potentiation of DNA damage by STSP as RA: U937, concentrations less than IC40, STSP as the TCI. How it is done:
Microcultures of human promonocytic lymphoma cells (U937) (“the U937 cells”) originally obtained from the American Type Culture Collection (CRL 1593) and later grown by Dr. K. Zoon at the FDA in Bethesda, Md. were set up in a multiwell plate with serial two-fold dilutions of dThd in tissue culture growth medium (RPMI 1640 plus 10% Nurserum and antibiotics). The volume of medium per well was 100 μl and the cell number per well was about 1×10^5. The plate was incubated at 37° C. for 24 hr.
A dye, 3-[4,5-dimethylthiazol-2-yl]-2,5-diphenyl-tetrazolium bromide (MTT), was used as a chromogenic indicator of the metabolically active cell mass. Viable cells metabolize the dye and accumulate a reduced formazan product (blue color) which is solubilized for colorimetry. Mossman T, J. Immunol. Methods 5:55-63 (1983); Li L and Lau B H S, In Vitro Cell Dev. Biol. 29A:531-536 (1993). The MTT assay has been established as useful for measuring either growth inhibition or population killing. Plowman, supra. The MTT method is ideal for cells tested in suspension growth, and can also be used for some cells growing in monolayers. […] Alley, supra; Hofs, supra; Wilson J K et al., Br. J. Cancer 62:189-94 (1990); Plowman, supra.
Thirty μl of 0.5% MTT in phosphate buffered saline was added to each microculture well at the appropriate time. After incubation at 37° C. for 3 hr, 120 μl of an aqueous solution of 10 % SDS with 0.01 N HCl was added to release and dissolve formazan product. This was accomplished by overnight incubation of the plate at 37° C. After careful mixing of the microwell contents by placing the plates on an orbital shaker for 5 minutes the absorbencies were quantitated by spectrophotometry at 570 nm with a Ceres UV 900 HDI microwell plate reader (from Biotek Instruments Inc, Winooski, Vt. 05404-0998). Absorbance data was normalized to a blank well containing all reagents without cells and was collected semi-automatically.
Flat-bottom 96-well plates of tissue culture quality (Corning or Costar) were set up with two-fold serial dilutions of each agent to be tested, e.g., the RA and TCI, using a multichannel pipettor with adjustable volume, e.g., Costar or Rainin, to perform serial mixing. This set-up is diagrammed in FIG. 12. […] In each plate, a total of 59 wells then contained bivariate agent combinations, the bivariate serial dilutions.
Agents were serially diluted by serial mixing in two separate plates or series of wells, and then were combined prior to addition of a fixed volume and density of the U937 cells in a suspension calculated to deliver about 1×10^5 cells per well.
Cells were added after serial dilutions of the dThd had been dispensed. Cells were dispensed at about 10×10^4 cells per microwell to provide optimal sensitivity of detection of cell damage in subsequent calorimetric assays. […] The final volume of medium was 100 μl/well. The plates were further incubated at 37° C. for a total duration of 18-24 h. The dye MTT was used as a chromogenic indicator of the residual and metabolically active cell mass. (Described in Example 1).
In this MTT assay, normalized absorbance data was collected semi-automatically from each microculture well with a Ceres UV 900 HD1 plate reader, from Biotek Instruments Inc., Winooski, V T 05404-0998, stored in an EIA file under the Ceres 900 program, transferred in comma delimited format to a floppy diskette, and imported into a spread sheet program (Borland Quattro Pro) for data manipulations.
A general note: Tetrazolium dyes change colour on reduction, which living cells bring about.

Usually inhibition stands for the drop in the measured response relative to a control, in per cent.

For the molecule `COC(=O)[C@@]1(O)C[C@H]2O[C@]1(C)n1c3ccccc3c3c4c(c5c6ccccc6n2c5c31)C(=O)NC4` [K252a], the “combined results ratio, K252a only” value reads like this: (K252a only 15 H, K252a uM by row: r7 2, r8 1, r9 0.5, r10 0.25, r11 0.13, r12 0.06) 1.0; (K252a only 20 H, K252a nM by row: r7 625, r8 313, r9 156, r10 78.1, r11 39.1, r12 19.5) 1.0.
With `CN(Cc1cnc2nc(N)nc(N)c2n1)c1ccc(C(=O)N[C@@H](CCC(=O)O)C(=O)O)cc1` [MTX, methotrexate], the “Potentiation of DNA damage by STSP as RA” value is “proved successful in potentiating DNA damage by STSP”. In addition, where the note is “Homo sapiens, U-937, U937, total 20 H, STSP 16 H, MTX 4 H, MTX 4 nM, STSP nM: 200, 100, 50, 25, 12.5, 6.25, 0”, the inhibition at 0.004 µM came out at 20%. For the same molecule, the inhibition at 0.008 µM (Homo sapiens, U-937, U937, total 20 H, STSP 16 H, MTX 4 H, MTX 8 nM, STSP nM: 200, 100, 50, 25, 12.5, 6.25, 0) worked out at 38%. Besides, the inhibition at […] (Homo sapiens, U-937, U937, total 20 H, STSP 16 H, MTX 4 H, MTX 16 nM, STSP nM: 200, 100, 50, 25, 12.5, 6.25, 0) is 48%. Also, the inhibition at […] (Homo sapiens, U-937, U937, total 20 H, STSP 16 H, MTX 4 H, MTX 31 nM, STSP nM: 200, 100, 50, 25, 12.5, 6.25, 0) was determined as 43%. In addition, where the note is “Homo sapiens, U-937, U937, total 20 H, STSP 16 H, MTX 4 H, MTX 63 nM, STSP nM: 200, 100, 50, 25, 12.5, 6.25, 0”, the inhibition at […] is 47%. Moreover, where the note is “Homo sapiens, U-937, U937, total 20 H, STSP 16 H, MTX 4 H, MTX 125 nM, STSP nM: 200, 100, 50, 25, 12.5, 6.25, 0”, the inhibition at 0.125 µM stood at 52%. Besides, the inhibition at […] (Homo sapiens, U-937, U937, total 20 H, STSP 16 H, MTX 4 H, MTX 250 nM, STSP nM: 200, 100, 50, 25, 12.5, 6.25, 0) is 57%. Further, where the note is “Homo sapiens, U-937, U937, total 20 H, STSP 16 H, MTX 4 H, MTX 500 nM, STSP nM: 200, 100, 50, 25, 12.5, 6.25, 0”, the inhibition at 0.5 µM stood at 62%. Further, the inhibition at 1 µM (Homo sapiens, U-937, U937, total 20 H, STSP 16 H, MTX 4 H, MTX 1000 nM, STSP nM: 200, 100, 50, 25, 12.5, 6.25, 0) is 61%. For the same molecule, the Combined results ratio (total 20 H, STSP 16 H, MTX 4 H, MTX 4 nM, STSP nM: 200, 100, 50, 25, 12.5, 6.25, 0) is reported as 1.0. The Combined results ratio (total 20 H, STSP 16 H, MTX 4 H, MTX 8 nM, STSP nM: 200, 100, 50, 25, 12.5, 6.25, 0) is reported as 1.0. Besides, the Combined results ratio (total 20 H, STSP 16 H, MTX 4 H, MTX 16 nM, STSP nM: 200, 100, 50, 25, 12.5, 6.25, 0) is given as 1.0. Besides, under “total 20 H, STSP 16 H, MTX 4 H, MTX 31 nM, STSP nM: 200, 100, 50, 25, 12.5, 6.25, 0”, the Combined results ratio turned out to be 1.0. In addition, the Combined results ratio (total 20 H, STSP 16 H, MTX 4 H, MTX 63 nM, STSP nM: 200, 100, 50, 25, 12.5, 6.25, 0) came out at 1.0. Moreover, the Combined results ratio (total 20 H, STSP 16 H, MTX 4 H, MTX 125 nM, STSP nM: 200, 100, 50, 25, 12.5, 6.25, 0) came to 1.0. Besides, the Combined results ratio (total 20 H, STSP 16 H, MTX 4 H, MTX 250 nM, STSP nM: 200, 100, 50, 25, 12.5, 6.25, 0) turned out to be 1.0. Further, the Combined results ratio (total 20 H, STSP 16 H, MTX 4 H, MTX 500 nM, STSP nM: 200, 100, 50, 25, 12.5, 6.25, 0) worked out at 1.0. Also, the Combined results ratio (total 20 H, STSP 16 H, MTX 4 H, MTX 1000 nM, STSP nM: 200, 100, 50, 25, 12.5, 6.25, 0) turned out to be 1.0.
Regarding `Nc1ccn([C@@H]2O[C@H](CO)[C@@H](O)[C@@H]2O)c(=O)n1` [ara-C, 1-β-D-arabinofuranosylcytosine], the “Potentiation of DNA damage by STSP as RA” value is “proved successful in potentiating DNA damage by STSP”.
Regarding `Cn1c(=O)c2c(ncn2C)n(C)c1=O` [caffeine], the “Interaction with STSP (differential O/S plot)” value (caffeine 0.1-2 mM) is listed as “strongly antagonized the action of STSP”.
In the case of `N.N.[Cl][Pt][Cl]` [cisplatin], the “combined results ratio, Cisplatin only” value (Cisplatin only 16 H, Cisplatin uM by row: r7 *****, r8 *****, r9 *****, r10 5.00, r11 2.50, r12 1.25) is recorded as 1.0 and the “combined results ratio, Cisplatin only” value (total 19 H, cisplatin 16 H, no STSP, cisplatin uM by row: r7 80, r8 40, r9 20, r10 10, r11 5, r12 2.5) is reported as 1.0.
